Tests used:
PC12 cells = assay: In vitro neuroprotection against oxygen glucose deprivation (OGD), MTT viability readout; format: cell-based; conditions: OGD 90 min, reoxygenation, furoxan 1, 10 or 25 μM, 24 hr
Method: FIGS. 3A-3C: Neuroprotection (FIG. 3A), MTT treatment was used to assess cell viability (FIG. 3B), and pCREB modulation (FIG. 3C) of furoxan compounds. Neuroprotection assay workflow: expose PC12 cells to oxygen glucose deprivation (OGD) for 90 min→reoxygenate and add furoxan (1, 10, or 25 μM)→incubate for 24 hr→MTT readout of viability. Data represented as mean and s.e.m. (n=3). *=p<0.05, **=p<0.01, ***=p<0.001 compared to vehicle control using one way ANOVA analysis with Dunnett's post-hoc test. Red dashed line indicates threshold of vehicle effects. For pCREB modulation, 31b (25 μM) was examined (PC-12 cells, 48 hr incubation) in the following: without insult, with OGD, L-NAME.
It has been shown that furoxans are protective against oxygen glucose deprivation (OGD), a commonly used cellular model of ischemic stroke. PC12 cells were submitted to OGD for 90 minutes followed by reoxygenation and treatment with varying concentrations of selected embodiments of compounds of Formula I (indicated in FIG. 3A). After 24 hr, MTT treatment was used to assess cell viability (FIG. 3B). […] It has been shown previously that 4-N-oxides release NO at a much slower rate than corresponding 2-N-oxides.

Male C57BL/6 mice = assay: Step-through passive avoidance (STPA), scopolamine-induced amnesia; format: in vivo; conditions: scopolamine 1 mg/kg i.p. alone (vehicle treated: 270 s±30 s), 24 hr after training
Method: FIGS. 4A-4B: STPA experimental timeline (FIG. 4A), and results of Male C57BL/6 mice administered either vehicle or 31b via i.p. injection at 60 min or 120 min prior to training in STPA (FIG. 4B). […] Memory retention was measured as latency to enter the dark compartment 24 h after training. Data represented as mean and s.e.m.
The STPA apparatus consisted of an acrylic box with an illuminated compartment connected to a darkened compartment by a small guillotine door. Mice were placed in the illuminated side and were trained against their natural tendency to translocate to the dark side using an aversive stimulus (shock via electrified floor grading). Memory consolidation is measured as the latency times to enter the dark compartment 24 hr after training.
All procedures were performed under the approved IACUC protocol #108451. Male C57BL/6 mice (Envigo), N=9 per group, were habituated at the animal facility for at least 14 days. Ear tags were applied and animals weighed. 2 hr prior to the drug adminstration the mice were individually acclimated to the illuminated compartment to assess tendency to enter the dark chamber (measured in seconds). In this phase no shock was be delivered. […] The mice were then administered either vehicle (95 [0.9% NaCl]:5 [DMSO]) or 31b (0.1, 1, 10, or 20 mg/kg) via i.p. injection (50 μL) at 1 h or 2 h prior to training. […] Mice were individually placed into the light compartment and upon translocation to the dark compartment the guiltine door closed and the mice were trained by delivering a mild adversive stimulus (0.5 mA) via the electrified floor grading of the dark chamber. Each mouse was held in the dark chamber for 30 seconds, then returned to their cage for 120 seconds before the second training session. […] Memory retention was measured 24 hours after training by placing the same mouse in the light chamber and measuring latency to enter the dark chamber (no aversive stimulus is delivered during the retention test). Data was analyzed by one way ANOVA analysis with Dunnett's post-hoc test.

Structure (SMILES) | Neuroprotection against OGD (cell viability by MTT) (PC12 cells) | Latency to enter the dark compartment (Male C57BL/6 mice)
CC1CCN(Cc2no[n+]([O-])c2-c2ccc(Br)cc2)CC1 [33b] | outperform the corresponding 2-N-oxides | –
CC1CCN(Cc2no[n+]([O-])c2-c2ccc(OC(F)(F)F)cc2)CC1 [37b, 4-((4-methylpiperidin-1-yl)methyl)-3-(4-(trifluoromethoxy)phenyl)-1,2,5-oxadiazole 2-oxide] | outperform the corresponding 2-N-oxides | –
Cc1ccc(-c2c(CN3CCC(C)CC3)no[n+]2[O-])cc1 [38b, 4-((4-methylpiperdin-1-yl)methyl)-3-(p-tolyl)-1,2,5-oxadiazole 2-oxide] | outperform the corresponding 2-N-oxides | –
[2H]C1([2H])CC(C)CC([2H])([2H])N1Cc1no[n+]([O-])c1-c1ccc(F)cc1 [41b] | outperform the corresponding 2-N-oxides | –
CN1[C@@H]2C[C@@H](OC(=O)[C@H](CO)c3ccccc3)C[C@H]1[C@@H]1O[C@@H]12 [Scopolamine, reference compound] | – | 63.5 s

— patent publication US10913732B2, “Furoxans as therapies for neurodegenerative disorders” (The University of Toledo, priority 2016, dated 2021)
